Laboratory results taken from US9044463B2, “FSH receptor antagonists” (Merck Sharp & Dohme B.V., priority 2011, dated 2015).

Molecular target: T1, human FSH receptor (Homo sapiens, UniProt P23945)
T1 construct: expressed in transfected cells; host or cells: CHO (Chinese Hamster Ovary) cells, stably transfected; cotransfected with a CRE-luciferase reporter
T1 sequence (P23945 18-695): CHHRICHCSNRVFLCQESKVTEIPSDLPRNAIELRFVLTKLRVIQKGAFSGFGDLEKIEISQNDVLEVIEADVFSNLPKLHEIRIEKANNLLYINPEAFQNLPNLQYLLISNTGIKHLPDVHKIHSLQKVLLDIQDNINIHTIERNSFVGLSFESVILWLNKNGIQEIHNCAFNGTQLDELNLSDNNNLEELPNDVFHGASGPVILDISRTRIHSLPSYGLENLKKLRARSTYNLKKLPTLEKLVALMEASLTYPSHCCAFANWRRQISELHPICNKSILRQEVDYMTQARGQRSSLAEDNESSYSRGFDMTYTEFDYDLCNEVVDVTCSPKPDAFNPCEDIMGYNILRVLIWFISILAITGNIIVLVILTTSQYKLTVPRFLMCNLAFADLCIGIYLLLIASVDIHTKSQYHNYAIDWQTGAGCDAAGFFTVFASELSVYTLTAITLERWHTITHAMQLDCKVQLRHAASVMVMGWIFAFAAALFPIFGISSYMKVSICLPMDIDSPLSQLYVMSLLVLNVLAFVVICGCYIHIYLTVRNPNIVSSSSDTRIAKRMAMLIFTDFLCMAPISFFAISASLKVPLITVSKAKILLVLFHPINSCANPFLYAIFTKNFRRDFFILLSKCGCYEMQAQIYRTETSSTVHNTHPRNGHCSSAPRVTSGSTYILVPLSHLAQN
Assay: Antagonistic activity at the human FSH receptor expressed in CHO cells (CRE-luciferase reporter)
Type: cell-based
Settings: CHO cells stably transfected with human FSH receptor and CRE-luciferase; with 49 μM recFSH; 4 hours incubation; read-out: IC50 (inhibition of recFSH-induced luciferase stimulation)
Experimental: Antagonistic Activity of Compounds at the Human FSH Receptor Expressed in CHO Cells
Antagonistic activity of the compounds at the human FSH receptor was determined in Chinese Hamster Ovary (CHO) cells stably transfected with the human FSH receptor and cotransfected to with a cAMP responsive element (CRE)/promoter directing the expression of a firefly luciferase reporter gene. Binding of the compounds to the Gs protein-coupled FSH receptor will result in an increase of cAMP, which in turn will induce an increased transactivation of the luciferase reporter. The cells (7,500 cells/well of a 384 well plate) were incubated in Dulbecco′ minimal essential F12 modified medium (Invitrogen), supplemented with 1 μg/ml bovine insulin, 5 μg/ml human apo-transferrin, 100 U/ml penicillin G and 100 μg/ml streptomycin with the test compounds (concentration between 0.316 nM and 10.0 μM) in duplicate together with […] recFSH (which, at this concentration in the absence of test compound, induces 80% of the maximal luciferase stimulation) in a humidified atmosphere (95%) at 5-7% CO2 and 37° C. The final concentration of DMSO was 1%. After 4 hours of incubation, plates were allowed to adjust to room temperature for 1 hour. Then, SteadyLite (PerkinElmer) solution was added to the wells and cells were allowed to lyse for at least 1 hour at room temperature. Subsequently, luciferase activity was measured in a luminescence counter. The signal is expressed as counts per second (cps). The IC50 (concentration of test compound causing half-maximal (50%) inhibition of the maximally attainable inhibition of the luciferase stimulation by the compound) and efficacy of the compounds were determined using the software program MathIQ (version 2.3, ID Business Solutions Limited).

| Compound | IC50 [nM] |
| --- | --- |
| CC(C)Oc1cc2c(cc1C(=O)N[C@@H](CO)Cc1c[nH]c3ccccc13)-c1cc3c(cc1CO2)OCO3 [Example 35, (R)—N-(1-hydroxy-3-(1H-indol-3-yl)propan-2-yl)-3-isopropoxy-8,9-(1′,3′-dioxolo)-6H-benzo[c]chromene-2-carboxamide] | 100 to 1000 |
| COc1cc2c(c(OC)c1OC)CCc1cc(OC(C)C)c(C(=O)N[C@@H](CO)Cc3c[nH]c4ccccc34)cc1-2 [Example 7, (R)—N-(1-hydroxy-3-(1H-indol-3-yl)propan-2-yl)-2-isopropoxy-6,7,8-trimethoxy-9,10-dihydrophenanthrene-3-carboxamide] | < 100 |
| COc1cc2c(cc1OC)-c1cc(C(=O)N[C@@H](CO)Cc3c[nH]c4ccccc34)c(-c3ccccc3F)cc1CC2 [Example 18, 2-(2-fluorophenyl)-N—((R)-1-hydroxy-3-(1H-indol-3-yl)propan-2-yl)-6,7-dimethoxy-9,10-dihydrophenanthrene-3-carboxamide] | < 100 |
| CN(C)C(=O)c1ccc2c(c1)COc1cc(-c3ccccc3F)c(C(=O)N[C@@H](CO)Cc3c[nH]c4ccccc34)cc1-2 [Example 54, 3-(2-fluorophenyl)-N2-((R)-1-hydroxy-3-(1H-indol-3-yl)propan-2-yl)-N8,N8-dimethyl-6H-benzo[c]chromene-2,8-dicarboxamide] | < 100 |
| COc1cc2c(c(OC)c1OC)CCc1cc(-c3ccccc3F)c(C(=O)N[C@@H](CO)Cc3c[nH]c4ccccc34)cc1-2 [Example 2, 2-(2-fluorophenyl)-N—((R)-1-hydroxy-3-(1H-indol-3-yl)propan-2-yl)-6,7,8-trimethoxy-9,10-dihydrophenanthrene-3-carboxamide] | < 100 |
| COc1cc2c(cc1OCC1CC1)COc1cc(-c3ccccc3F)c(C(=O)N[C@@H](CO)Cc3c[nH]c4ccccc34)cc1-2 [Example 49, 8-(cyclopropylmethoxy)-3-(2-fluorophenyl)-N—((R)-1-hydroxy-3-(1H-indol-3-yl)propan-2-yl)-9-s methoxy-6H-benzo[c]chromene-2-carboxamide] | < 100 |
| COc1cc2c(cc1OC(C)C)COc1cc(-c3ccccc3F)c(C(=O)N[C@@H](CO)Cc3c[nH]c4ccccc34)cc1-2 [Example 43, 3-(2-fluorophenyl)-N—((R)-1-hydroxy-3-(1H-indol-3-yl)propan-2-yl)-8-isopropoxy-9-methoxy-6H-benzo[c]chromene-2-carboxamide] | < 100 |
| COc1cc2c(cc1OC)-c1cc(C(=O)N[C@@H](CO)Cc3c[nH]c4ccccc34)c(-c3cccc(C(N)=O)c3)cc1CC2 [Example 26, (R)-2-(3-carbamoylphenyl)-N-(1-hydroxy-3-(1H-indol-3-yl)propan-2-yl)-6,7-dimethoxy-9,10-dihydrophenanthrene-3-carboxamide] | 100 to 1000 |
| COc1cc2c(cc1OC)-c1cc(C(=O)N[C@@H](CO)Cc3c[nH]c4ccccc34)c(-c3ccccc3)cc1OC2 [Example 40, (R)—N-(1-hydroxy-3-(1H-indol-3-yl)propan-2-yl)-8,9-dimethoxy-3-phenyl-6H-benzo[c]chromene-2-carboxamide] | < 100 |
| COc1cc2c(cc1OC)-c1cc(C(=O)N[C@@H](CO)Cc3c[nH]c4ccccc34)c(OC(F)C(N)=O)cc1CC2 (stereo partly drawn) [Example 14, 2-(2-amino-1-fluoro-2-oxoethoxy)-N—((R)-1-hydroxy-3-(1H-indol-3-yl)propan-2-yl)-6,7-dimethoxy-9,10-dihydrophenanthrene-3-carboxamide] | 100 to 1000 |
| COc1cc2c(cc1OC)-c1cc(C(=O)N[C@@H](CO)Cc3c[nH]c4ccccc34)c(-c3sccc3C)cc1OC2 [Example 39, N—((R)-1-hydroxy-3-(1H-indol-3-yl)propan-2-yl)-8,9-dimethoxy-3-(3-methylthiophen-2-yl)-6H-benzo[c]chromene-2-carboxamide] | < 100 |
| COCCOc1cc2c(cc1OC)-c1cc(C(=O)N[C@@H](CO)Cc3c[nH]c4ccccc34)c(-c3ccccc3F)cc1OC2 [Example 45, 3-(2-fluorophenyl)-N—((R)-1-hydroxy-3-(1H-indol-3-yl)propan-2-yl)-9-methoxy-8-(2-methoxyethoxy)-6H-benzo[c]chromene-2-carboxamide] | < 100 |
| COc1cc2c(cc1OC)-c1cc(C(=O)N[C@@H](CO)Cc3c[nH]c4ccccc34)c(-c3ccco3)cc1CC2 [Example 24, (R)-2-(furan-2-yl)-N-(1-hydroxy-3-(1H-indol-3-yl)propan-2-yl)-6,7-dimethoxy-9,10-dihydrophenanthrene-3-carboxamide] | < 100 |
| O=C(N[C@@H](CO)Cc1c[nH]c2ccccc12)c1cc2c(cc1-c1ccccc1F)OCc1cc(C(=O)N3CCOCC3)ccc1-2 [Example 53, 3-(2-fluorophenyl)-N—((R)-1-hydroxy-3-(1H-indol-3-yl)propan-2-yl)-8-(morpholine-4-carbonyl)-6H-benzo[c]chromene-2-carboxamide] | < 100 |
| COc1cc2c(cc1OC)-c1cc(C(=O)N[C@@H](CO)Cc3c[nH]c4ccccc34)c(C(C)=C(C)C)cc1CC2 [Example 22, (R)—N-(1-hydroxy-3-(1H-indol-3-yl)propan-2-yl)-6,7-dimethoxy-2-(3-methylbut-2-en-2-yl)-9,10-dihydrophenanthrene-3-carboxamide] | < 100 |
| COc1cc2c(cc1OC)-c1cc(C(=O)N[C@@H](CO)Cc3c[nH]c4ccccc34)c(-c3cccc(F)c3F)cc1OC2 [Example 37, 3-(2,3-difluorophenyl)-N—((R)-1-hydroxy-3-(1H-indol-3-yl)propan-2-yl)-8,9-dimethoxy-6H-benzo[c]chromene-2-carboxamide] | < 100 |
| CC(C)Oc1cc2oc(=O)c3cc4c(cc3c2cc1C(=O)N[C@@H](CO)Cc1c[nH]c2ccccc12)OCO4 [Example 57, N—((R)-1-hydroxy-3-(1H-indol-3-yl)propan-2-v)-8,9-(1′,3′-dioxolo)-3-(3-isopropoxy)-6-oxo-6H-benzo[c]chromene-2-carboxamide] | 100 to 1000 |
| C=CCOc1cc2c(cc1OC)-c1cc(C(=O)N[C@@H](CO)Cc3c[nH]c4ccccc34)c(-c3ccccc3F)cc1OC2 [Example 46, 8-(allyloxy)-3-(2-fluorophenyl)-N—((R)-1-hydroxy-3-(1H-indol-3-yl)propan-2-yl)-9-methoxy-6H-benzo[c]chromene-2-carboxamide] | < 100 |
| C=CCOc1cc2c(cc1OC)-c1cc(C(=O)N[C@@H](CO)Cc3c[nH]c4ccccc34)c(-c3ccccc3F)cc1CC2 [Example 28, 7-(allyloxy)-2-(2-fluorophenyl)-N—((R)-1-hydroxy-3-(1H-indol-3-yl)propan-2-yl)-6-methoxy-9,10-dihydrophenanthrene-3-carboxamide] | < 100 |
| COc1cc2c(cc1OCCN(C)C)COc1cc(-c3ccccc3F)c(C(=O)N[C@@H](CO)Cc3c[nH]c4ccccc34)cc1-2 [Example 48, 8-(2-(dimethylamino)ethoxy)-3-(2-fluorophenyl)-N—((R)-1-hydroxy-3-(1H-indol-3-yl)propan-2-yl)-9-methoxy-6H-benzo[c]chromene-2-carboxamide] | < 100 |
| COc1cc2c(c(OC)c1OC)CCc1cc(-c3sccc3C)c(C(=O)N[C@@H](CO)Cc3c[nH]c4ccccc34)cc1-2 [Example 5, N—((R)-1-hydroxy-3-(1H-indol-3-yl)propan-2-yl)-6,7,8-trimethoxy-2-(3-methylthiophen-2-yl)-9,10-dihydrophenanthrene-3-carboxamide] | < 100 |
| C=CCOc1cc2c(cc1C(=O)N[C@@H](CO)Cc1c[nH]c3ccccc13)-c1cc(OC)c(OC)cc1CC2 [Example 13, (R)-2-(allyloxy)-N-(1-hydroxy-3-(1H-indol-3-yl)propan-2-yl)-6,7-dimethoxy-9,10-dihydrophenanthrene-3-carboxamide] | 100 to 1000 |
| COc1cc2c(cc1O)CCc1cc(-c3ccccc3F)c(C(=O)N[C@@H](CO)Cc3c[nH]c4ccccc34)cc1-2 [Example 30, 2-(2-fluorophenyl)-7-hydroxy-N—((R)-1-hydroxy-3-(1H-indol-3-yl)propan-2-yl)-6-methoxy-9,10-dihydrophenanthrene-3-carboxamide] | < 100 |
